Experimental data taken from publication PMC5677090, “Multiple Behavior Phenotypes of the Fragile-X Syndrome Mouse Model Respond to Chronic Inhibition of Phosphodiesterase-4D (PDE4D)” (Scientific Reports, 2017).

Target: T1, PDE4B (Mus musculus, UniProt Q8VBU5)
T1 sequence (Q8VBU5 1-721): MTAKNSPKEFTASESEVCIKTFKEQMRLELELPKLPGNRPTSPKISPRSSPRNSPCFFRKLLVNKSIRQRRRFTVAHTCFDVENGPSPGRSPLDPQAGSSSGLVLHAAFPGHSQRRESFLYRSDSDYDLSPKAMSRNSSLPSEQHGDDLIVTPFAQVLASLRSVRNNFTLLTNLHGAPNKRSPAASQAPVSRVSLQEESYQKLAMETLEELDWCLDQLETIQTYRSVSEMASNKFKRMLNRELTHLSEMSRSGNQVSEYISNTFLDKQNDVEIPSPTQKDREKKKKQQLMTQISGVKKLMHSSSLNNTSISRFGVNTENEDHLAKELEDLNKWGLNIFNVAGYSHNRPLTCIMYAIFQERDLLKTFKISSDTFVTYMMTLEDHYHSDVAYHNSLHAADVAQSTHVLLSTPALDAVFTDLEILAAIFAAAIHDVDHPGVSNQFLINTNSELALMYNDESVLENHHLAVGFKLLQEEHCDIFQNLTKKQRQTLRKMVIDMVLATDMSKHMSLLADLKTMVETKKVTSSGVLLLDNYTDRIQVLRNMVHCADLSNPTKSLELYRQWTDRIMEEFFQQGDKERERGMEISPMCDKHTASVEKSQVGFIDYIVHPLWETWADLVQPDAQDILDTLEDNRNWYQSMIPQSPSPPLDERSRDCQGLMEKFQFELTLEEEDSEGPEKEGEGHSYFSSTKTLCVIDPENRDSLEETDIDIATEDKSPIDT
Assay: PDE4B inhibition IC50, selectivity comparison (assay details not given)
Format: biochemical

`O=C(O)Cc1ccc(Cc2cc(-c3cccc(Cl)c3)nc(C(F)(F)F)c2)cc1` [BPN14770] was tested, and the IC50 was 2120 nM.
